In paper PMC8519569 (Science Advances, 2021) one finds Kd data, which are given here for one compound.

Molecules are shown by their SMILES.

The target in the assay is T1, PatA (Mycolicibacterium smegmatis, UniProt A0QWG5).
T1 sequence (A0QWG5 1-304): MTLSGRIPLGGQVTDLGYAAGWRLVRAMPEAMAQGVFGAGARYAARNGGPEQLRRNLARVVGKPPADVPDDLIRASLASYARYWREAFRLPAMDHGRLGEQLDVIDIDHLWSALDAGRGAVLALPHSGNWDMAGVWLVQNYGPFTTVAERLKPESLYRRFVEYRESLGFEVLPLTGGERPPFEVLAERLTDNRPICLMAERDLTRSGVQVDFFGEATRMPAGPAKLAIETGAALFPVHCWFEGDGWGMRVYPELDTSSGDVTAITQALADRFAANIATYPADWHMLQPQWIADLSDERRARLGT
Nature of the assay: isothermal titration calorimetry. Format: binding.

Consider `CCCCCCCCCCCCCCCCSCCNC(=O)CCNC(=O)[C@H](O)C(C)(C)COP(=O)(O)OP(=O)(O)OC[C@H]1O[C@@H](n2cnc3c(N)ncnc32)[C@H](O)[C@@H]1OP(=O)(O)O` [S-C16-CoA, S-hexadecyl-CoA], for which binding was characterised by a dissociation constant (Kd) of 7.18 µM.
